In data set [1] the target is T1, purified recombinant Cdc25-C enzyme (MBP-Cdc25C protein) (Homo sapiens, UniProt P30307).
T1 construct: made in house
T1 sequence (P30307 1-473): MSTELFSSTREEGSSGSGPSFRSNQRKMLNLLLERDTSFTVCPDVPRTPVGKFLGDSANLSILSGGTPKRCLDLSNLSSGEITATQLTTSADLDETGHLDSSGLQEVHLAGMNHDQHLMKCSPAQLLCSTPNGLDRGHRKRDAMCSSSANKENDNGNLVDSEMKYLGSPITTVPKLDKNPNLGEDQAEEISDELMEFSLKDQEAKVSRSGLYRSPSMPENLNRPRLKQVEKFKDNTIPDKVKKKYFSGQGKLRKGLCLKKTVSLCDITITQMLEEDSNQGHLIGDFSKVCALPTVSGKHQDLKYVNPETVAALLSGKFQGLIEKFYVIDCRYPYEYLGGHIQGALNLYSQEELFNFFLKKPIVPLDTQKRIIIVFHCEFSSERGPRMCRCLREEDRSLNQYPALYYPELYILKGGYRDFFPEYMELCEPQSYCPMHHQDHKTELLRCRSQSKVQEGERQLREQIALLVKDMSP
In words: Phosphatase activity of the purified recombinant Cdc25C enzyme (OMFP dephosphorylation, fluorescence). It counts as biochemical. The settings on record: OMFP 500 μM, 4 hours at 30° C. In outline:
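MBP-Cdc25C fusion protein in 50 mM Tris-HCl pH 8.2, 50 mM NaCl, 1 mM DTT, 20% glycerol; reaction started with 500 μM OMFP (final). Compounds tested at decreasing concentrations from 40 μM; 4 h at 30 °C, OMF fluorescence read at 475 nm. IC50 from three independent experiments by linear regression over the linear part of the sigmoid.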

Data set [2] relates to DU145 (human prostate cancer cells). In words: Anti-proliferative activity on DU-145 cell line (WST1 colorimetric test). It counts as cell-based. The settings on record: DU-145, 96 h, 96 hours treatment, read-out: IC50 on the proliferation of the DU-145 cell line. (Tetrazolium assays rely on reduction of a dye to a coloured formazan, in cell work by metabolically active cells.)

In data set [3] the test system is Mia-PaCa2 (human pancreas cancer cells). The data set is described as follows: Anti-proliferative activity on Mia-Paca2 cell line (WST1 colorimetric test). It counts as cell-based. The settings on record: MIA PaCa-2, 96 h, 96 hours treatment, read-out: IC50 on proliferation of the Mia-Paca2 cell line. The protocol: By way of an example, the effect of treating two human cell lines Mia-Paca2 and DU145 with the compounds of the examples described hereinbefore will be studied. The cell lines DU145 (human prostate cancer cells) and Mia-PaCa2 (human pancreas cancer cells) were obtained from the American Tissue Culture Collection (Rockville, Md., USA). A 96-well plate was inoculated on day 0 with cells placed in 80 μl of Dulbecco's modified Eagle's medium (Gibco-Brl, Cergy-Pontoise, France) with 10% heat-inactivated foetal calf serum (Gibco-Brl, Cergy-Pontoise, France), 50000 units/1 of penicillin and 50 mg/l of streptomycin (Gibco-Brl, Cergy-Pontoise, France), and 2 mM of glutamine (Gibco-Brl, Cergy-Pontoise, France). The cells were treated on day 1 with increasing concentrations of each test compound up to 10 μM for 96 hours. At the end of this period, cell proliferation is quantified by means of a colorimetric test based on cleavage of the tetrazolium salt WST1 by the mitochondrial dehydrogenases in the viable cells, resulting in formation of formazan (Boehringer Mannheim, Meylan, France). These tests are performed in duplicate with 8 determinations per concentration tested. For each compound to be tested, the values within the linear part of the sigmoid curve were subjected to linear regression analysis and used to estimate the IC50 inhibitory concentration. The products are solubilised in dimethylsulfoxide (DMSO) at a concentration of 10^−2 M and used in culture with a final DMSO concentration of 0.1%.

Usually melting point stands for the temperature of the solid-liquid transition.

`CN(CCNc1cc(N2CCCC2)nc(N2CCCC2)n1)CCNS(=O)(=O)c1ccc(C(F)(F)F)cc1` [Example 89, N-{2-[{2-[(2,6-dipyrrolidin-1-ylpyrimidin-4-yl)amino]ethyl}(methyl)amino]ethyl}-4-(trifluoromethyl)benzenesulfonamide]: the melting point fell in the range of 140 to 142 °C. The IC50 in data set [1] was ≤ 5 µM. For the same molecule, the IC50 in data set [2] is ≤ 5 µM. The IC50 in data set [3] is ≤ 5 µM.

(Values after patent publication US20100137275A1 (IPSEN PHARMA S.A.S., priority 2007, published 2010).)
